Earlier results, collected in patent US9050475B2, “High SPF sunscreen compositions” (MD SOLARSCIENCES CORP., priority 2010, dated 2015).

settings: known UV-A or UV-B protection properties of FDA-approved sunscreens

Structure (SMILES) | Range Covered
CCOCCOC(=O)C=Cc1ccc(OC)cc1 [Cinoxate, 2-ethoxyethylp-methoxycinnamate] | UV-B (UV-B: 290-320 nm)
CC1CC(OC(=O)c2ccccc2O)CC(C)(C)C1 (stereo not shown) [Homosalate] | UV-B (UV-B: 290-320 nm)
CCCCC(CC)COC(=O)c1ccccc1O (stereo not shown) [Octisalate, 2-ethylhexyl salicylate] | UV-B (UV-B: 290-320 nm)
CCCCC(CC)COC(=O)c1ccc(N(C)C)cc1 (stereo not shown) [Padimate O, octyl dimethyl PABA] | UV-B (UV-B: 290-320 nm)

Other lines, results leading:

Range Covered | Structure (SMILES)
UV-B (UV-B: 290-320 nm) | CCCCC(CC)COC(=O)C(C#N)=C(c1ccccc1)c1ccccc1 (stereo not shown) [Octocrylene, 2-ethylhexyl-2-cyano-3.3 diphenylacrylate]
UV-B, UV-A2 | COc1ccc(C(=O)c2ccccc2)c(O)c1 [Oxybenzone]
UV-B, UV-A2 | COc1cc(O)c(C(=O)c2ccccc2)cc1S(=O)(=O)O [Sulisobenzone]
